According to the CheMixHub viscosity set:
± gives the uncertainty stated by the source.

Test: xn = mol fraction of the nth substance listed

c1ccc2ncccc2c1 + Oc1ccccc1Cl
Conditions	viscosity [mPa·s]
293.15 K, 101 kPa, x2 = 0.1686	6.62 ± 0.07
293.15 K, 101 kPa, x2 = 0.3263	13 ± 0.17
293.15 K, 101 kPa, x2 = 0.4251	23.62 ± 0.4
293.15 K, 101 kPa, x2 = 0.4893	33.45 ± 0.69
293.15 K, 101 kPa, x2 = 0.5043	35.1 ± 0.69
293.15 K, 101 kPa, x2 = 0.534	36.9 ± 0.76
293.15 K, 101 kPa, x2 = 0.5506	37.25 ± 0.79
293.15 K, 101 kPa, x2 = 0.5803	36.62 ± 0.78
293.15 K, 101 kPa, x2 = 0.6353	31.62 ± 0.67
293.15 K, 101 kPa, x2 = 0.7227	21.85 ± 0.39
293.15 K, 101 kPa, x2 = 0.8671	9.95 ± 0.14
298 K, 101.3 kPa, x1 = 0.0761	4.871 ± 0.061
298 K, 101.3 kPa, x1 = 0.1549	7.882 ± 0.11
298 K, 101.3 kPa, x1 = 0.2343	11.68 ± 0.23
298 K, 101.3 kPa, x1 = 0.3348	19.63 ± 0.51
298 K, 101.3 kPa, x1 = 0.4286	26.3 ± 0.77
298 K, 101.3 kPa, x1 = 0.5274	21.74 ± 0.58
298 K, 101.3 kPa, x1 = 0.6364	12.94 ± 0.27
298 K, 101.3 kPa, x1 = 0.7447	8.205 ± 0.13
298 K, 101.3 kPa, x1 = 0.8898	4.628 ± 0.055
303 K, 101.3 kPa, x1 = 0.0761	4.063 ± 0.039
303 K, 101.3 kPa, x1 = 0.1549	6.073 ± 0.069
303 K, 101.3 kPa, x1 = 0.2343	9.042 ± 0.13
303 K, 101.3 kPa, x1 = 0.3348	14.39 ± 0.32
303 K, 101.3 kPa, x1 = 0.4286	18.2 ± 0.48
303 K, 101.3 kPa, x1 = 0.5274	16.12 ± 0.38
303 K, 101.3 kPa, x1 = 0.6364	10.29 ± 0.17
303 K, 101.3 kPa, x1 = 0.7447	6.433 ± 0.069
303 K, 101.3 kPa, x1 = 0.8898	4.058 ± 0.034
303.15 K, 101 kPa, x2 = 0.1686	4.87 ± 0.05
303.15 K, 101 kPa, x2 = 0.3263	9.11 ± 0.1
303.15 K, 101 kPa, x2 = 0.4251	14.4 ± 0.18
303.15 K, 101 kPa, x2 = 0.4893	17.92 ± 0.28
303.15 K, 101 kPa, x2 = 0.5043	18.4 ± 0.28
303.15 K, 101 kPa, x2 = 0.534	19 ± 0.3
303.15 K, 101 kPa, x2 = 0.5506	19.01 ± 0.3
303.15 K, 101 kPa, x2 = 0.5803	18.88 ± 0.29
303.15 K, 101 kPa, x2 = 0.6353	17.42 ± 0.25
303.15 K, 101 kPa, x2 = 0.7227	12.82 ± 0.17
303.15 K, 101 kPa, x2 = 0.8671	6.41 ± 0.08
308 K, 101.3 kPa, x1 = 0.0761	3.469 ± 0.032
308 K, 101.3 kPa, x1 = 0.1549	5.006 ± 0.046
308 K, 101.3 kPa, x1 = 0.2343	7.403 ± 0.087
308 K, 101.3 kPa, x1 = 0.3348	11.49 ± 0.2
308 K, 101.3 kPa, x1 = 0.4286	14.09 ± 0.3
308 K, 101.3 kPa, x1 = 0.5274	12.37 ± 0.24
308 K, 101.3 kPa, x1 = 0.6364	8.401 ± 0.11
308 K, 101.3 kPa, x1 = 0.7447	5.506 ± 0.045
308 K, 101.3 kPa, x1 = 0.8898	3.581 ± 0.03
313 K, 101.3 kPa, x1 = 0.0761	2.998 ± 0.027
313 K, 101.3 kPa, x1 = 0.1549	4.205 ± 0.04
313 K, 101.3 kPa, x1 = 0.2343	6.048 ± 0.061
313 K, 101.3 kPa, x1 = 0.3348	9.267 ± 0.14
313 K, 101.3 kPa, x1 = 0.4286	11.03 ± 0.19
313 K, 101.3 kPa, x1 = 0.5274	9.852 ± 0.15
313 K, 101.3 kPa, x1 = 0.6364	7.017 ± 0.074
313 K, 101.3 kPa, x1 = 0.7447	4.762 ± 0.041
313 K, 101.3 kPa, x1 = 0.8898	3.171 ± 0.027
313.15 K, 101 kPa, x2 = 0.1686	3.71 ± 0.04
313.15 K, 101 kPa, x2 = 0.3263	6.35 ± 0.06
313.15 K, 101 kPa, x2 = 0.4251	8.96 ± 0.09
313.15 K, 101 kPa, x2 = 0.4893	10.47 ± 0.13
313.15 K, 101 kPa, x2 = 0.5043	10.73 ± 0.12
313.15 K, 101 kPa, x2 = 0.534	10.95 ± 0.12
313.15 K, 101 kPa, x2 = 0.5506	10.98 ± 0.12
313.15 K, 101 kPa, x2 = 0.5803	10.89 ± 0.12
313.15 K, 101 kPa, x2 = 0.6353	10 ± 0.11
313.15 K, 101 kPa, x2 = 0.7227	7.64 ± 0.08
313.15 K, 101 kPa, x2 = 0.8671	4.33 ± 0.05
318 K, 101.3 kPa, x1 = 0.0761	2.614 ± 0.022
318 K, 101.3 kPa, x1 = 0.1549	3.59 ± 0.031
318 K, 101.3 kPa, x1 = 0.2343	4.979 ± 0.049
318 K, 101.3 kPa, x1 = 0.3348	7.306 ± 0.11
318 K, 101.3 kPa, x1 = 0.4286	8.786 ± 0.15
318 K, 101.3 kPa, x1 = 0.5274	7.927 ± 0.12
318 K, 101.3 kPa, x1 = 0.6364	5.922 ± 0.054
318 K, 101.3 kPa, x1 = 0.7447	4.17 ± 0.031
318 K, 101.3 kPa, x1 = 0.8898	2.824 ± 0.022

CCC(C)=O + CCCCCCCO
viscosity [mPa·s], 100 kPa
Conditions	x1 = 0.0829	x1 = 0.1614	x1 = 0.2389	x1 = 0.3509	x1 = 0.4404	x1 = 0.5592	x1 = 0.6488	x1 = 0.7389	x1 = 0.8502	x1 = 0.9396
293.15 K	5.23 ± 0.53	3.85 ± 0.39	3.02 ± 0.3	2.1 ± 0.21	1.64 ± 0.16	1.16 ± 0.12	0.92 ± 0.09	0.73 ± 0.07	0.56 ± 0.06	0.47 ± 0.05
303.15 K	3.72 ± 0.37	2.97 ± 0.3	2.31 ± 0.23	1.69 ± 0.17	1.31 ± 0.13	0.9 ± 0.09	0.73 ± 0.07	0.6 ± 0.06	0.45 ± 0.05	0.39 ± 0.04
313.15 K	2.85 ± 0.29	2.28 ± 0.23	1.82 ± 0.18	1.38 ± 0.14	1.11 ± 0.11	0.82 ± 0.08	0.68 ± 0.07	0.56 ± 0.06	0.44 ± 0.04	0.38 ± 0.04
323.15 K	2.21 ± 0.22	1.82 ± 0.18	1.48 ± 0.15	1.15 ± 0.12	0.93 ± 0.09	0.7 ± 0.07	0.58 ± 0.06	0.5 ± 0.05	0.39 ± 0.04	0.34 ± 0.03

COc1ccccc1N + NCCO
viscosity [mPa·s], 100 kPa
Conditions	x1 = 0.0897	x1 = 0.1649	x1 = 0.2579	x1 = 0.3519	x1 = 0.4497	x1 = 0.5507	x1 = 0.6549	x1 = 0.7626	x1 = 0.8735
303.15 K	13.58 ± 0.37	12.87 ± 0.35	11.99 ± 0.33	11.1 ± 0.3	10.18 ± 0.28	9.22 ± 0.25	8.23 ± 0.22	7.2 ± 0.19	6.14 ± 0.17
308.15 K	11.07 ± 0.31	10.54 ± 0.29	9.87 ± 0.27	9.2 ± 0.25	8.5 ± 0.23	7.77 ± 0.21	7.02 ± 0.19	6.24 ± 0.17	5.44 ± 0.15
313.15 K	9.09 ± 0.25	8.7 ± 0.24	8.2 ± 0.23	7.7 ± 0.21	7.17 ± 0.2	6.63 ± 0.18	6.07 ± 0.17	5.49 ± 0.15	4.88 ± 0.13
318.15 K	7.24 ± 0.21	6.97 ± 0.2	6.64 ± 0.19	6.29 ± 0.18	5.94 ± 0.17	5.56 ± 0.15	5.18 ± 0.14	4.78 ± 0.13	4.37 ± 0.12

COc1ccccc1N + OCCCl
viscosity [mPa·s], 100 kPa
Conditions	x1 = 0.1041	x1 = 0.2448	x1 = 0.3401	x1 = 0.4623	x1 = 0.5621	x1 = 0.6825	x1 = 0.7612	x1 = 0.8484	x1 = 0.9217
303.15 K	2.83 ± 0.08	3.17 ± 0.09	3.4 ± 0.09	3.69 ± 0.1	3.92 ± 0.11	4.2 ± 0.11	4.38 ± 0.12	4.58 ± 0.12	4.75 ± 0.13
308.15 K	2.5 ± 0.07	2.83 ± 0.08	3.05 ± 0.08	3.33 ± 0.09	3.55 ± 0.1	3.82 ± 0.1	4 ± 0.11	4.19 ± 0.11	4.35 ± 0.12
313.15 K	2.11 ± 0.06	2.44 ± 0.07	2.67 ± 0.07	2.96 ± 0.08	3.19 ± 0.09	3.47 ± 0.09	3.65 ± 0.1	3.85 ± 0.1	4.01 ± 0.11
318.15 K	1.82 ± 0.05	2.15 ± 0.06	2.38 ± 0.06	2.66 ± 0.07	2.9 ± 0.08	3.17 ± 0.09	3.35 ± 0.09	3.55 ± 0.1	3.71 ± 0.1

CCC(C)=O + CCCCCC
298 K, 101.33 kPa
Conditions	viscosity [mPa·s]
x1 = 0.055	0.3018 ± 0.0043
x1 = 0.2337	0.3032 ± 0.0044
x1 = 0.2985	0.3054 ± 0.0044
x1 = 0.4168	0.3122 ± 0.0045
x1 = 0.5063	0.3211 ± 0.0046
x1 = 0.6043	0.3277 ± 0.0047
x1 = 0.6943	0.3371 ± 0.0048
x1 = 0.8004	0.3496 ± 0.0049
x1 = 0.9053	0.3647 ± 0.0051

COc1ccccc1N + COCCO
303.15 K, 101 kPa
Conditions	viscosity [mPa·s]
x1 = 0.0724	2.225 ± 0.041
x1 = 0.1494	2.507 ± 0.046
x1 = 0.2314	2.808 ± 0.051
x1 = 0.319	3.132 ± 0.057
x1 = 0.4127	3.478 ± 0.063
x1 = 0.5131	3.794 ± 0.069
x1 = 0.6211	4.083 ± 0.074
x1 = 0.7376	4.343 ± 0.079
x1 = 0.8635	4.614 ± 0.084
